Test results taken from patent US20240400986A1, “MEMBRANE BOUND COMPOSITIONS AND METHODS RELATING TO SAME” (FLAGSHIP PIONEERING INNOVATIONS VII, LLC, priority 2021, published 2024).
Read-outs that look alike come from different tables or passages of the source.

Columns and labels:
[1] = system: neuronal cell line derived from human neuroblastoma; assay: Small molecule compound screen of gigasome production in neuronal monocultures; conditions: for fold induction at 0.01 µM / fold induction at 0.1 µM / fold induction at 1 µM / fold induction at 10 µM: Homo sapiens, read-out: Fold Change of Gigasomes Produced vs. DMSO; for fold induction at 0.01 µM / fold induction at 0.1 µM / fold induction at 1 µM / fold induction at 10 µM / downregulation of gigasome production: 24 h; for Number of Gigasomes Produced / Fold Change of Gigasomes Produced vs. DMSO / downregulation of gigasome production: neuronal cells; for Number of Gigasomes Produced / Fold Change of Gigasomes Produced vs. DMSO: 24 hours; for downregulation of gigasome production: doses 10-10,000 nM
[2] = system: neuronal cell line derived from human neuroblastoma
Experimental: For the screening, a total of 99 compounds (TargetMol) were divided in 5 groups. Each group included an untreated condition, a vehicular DMSO control, and a known high-gigasome producing condition to comparatively study gigasome production rates. As a cell death control group, 500 nM Staurosporine was added to induce apoptosis. Cultures were incubated for 24 hours under gigasome inducing conditions at concentrations ranging between 10 nM and 10,000 nM. Before the end of the treatment, live neuronal cultures were imaged. The Zeiss ZEN Blue software was used to distribute imaging fields of view (positions) to create an unbiased imaging sample of a well. 5 images were taken using a Zeiss LSM 900 confocal microscope. […] The BioApps ZEN software package was used to perform cell nucleus segmentation and counting. After 24 hours, gigasomes were harvested from the cell culture media by gently removing from the top of each 96-well ⅔ of the total volume without disturbing the cell layer (containing the settled gigasomes) and by adding to each well the same amount of PBS. […] Cells remaining in the 96-well plates were assessed for viability using CellTiter-Glo (Promega).

[3] = system: cardiomyocytic cell line derived from human ventricular heart tissue; assay: Small molecule compound screen of gigasome production in cardiomyocytic monocultures; conditions: cardiomyocytes;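 also: gigasomes shed into the culture medium were imaged by confocal microscopy and counted as round particles lacking nuclear signal, extrapolated to the whole well, fold change is relative to DMSO vehicle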
Experimental: For the screening, a total of 100 randomly organized compounds (TargetMol) were divided in 5 groups. Each group included an untreated condition, a vehicular DMSO control, and a known high-gigasome producing condition to comparatively study gigasome production rates. As a cell death control group, 500 nM Staurosporine was added to induce apoptosis. Cultures were incubated for 24 hours under gigasome inducing conditions at concentrations ranging between 10 nM and 10,000 nM. […] The Zeiss ZEN Blue software was used to distribute imaging fields of view (positions) to create an unbiased imaging sample of a well. 5 images were taken using a Zeiss LSM 900 confocal microscope. […] The BioApps ZEN software package was used to perform cell nucleus segmentation and counting. After 24 hours, gigasomes were harvested from the cell culture media by gently removing from the top of each 96-well ⅔ of the total volume without disturbing the cell layer (containing the settled gigasomes) and by adding to each well the same amount of PBS containing 0.5 mM EDTA. The wells were washed twice gently, and the gigasome-containing media/0.5 mM EDTA PBS wash was transferred into the well of a 384-well glass bottom plate. Cells remaining in the 96-well plates were assessed for viability using CellTiter-Glo (Promega).
For gigasome analysis in 384-well plates, the Zeiss ZEN Blue software was used to distribute positions to create an unbiased imaging sample of a well. 6 images per well were taken using a Zeiss LSM 900 confocal microscope. […] A watershed binary segmentation step was performed to separate grouped objects. For each particle in the mask, characteristic parameters of the particle were calculated and saved. […] Particles of interest were identified by thresholding by area and circularity. […] Circularity, defined by the formula 4pi(area/perimeter^2, was set to be between 0.8, where a value of 1.0 is a perfect circle, and a value of 0 is a line. Gigasomes were identified from the particles of interest by thresholding by mean nuclear signal. The nuclear signal threshold was set using a value equal to one quarter of a threshold value calculated by the Li auto-threshold algorithm applied to the distribution of all particles of interest. Particles of interest with nuclear signal below this value were considered “negative” for nuclear material and were identified as gigasomes. A sampling factor was calculated to extrapolate the total quantity of a type of object (particles, particles of interest, gigasomes) in the well. The sampling factor was the percentage of the well's area that was imaged. […] In some experiments, the number of cells in the cell cultures were estimated with a cell counter. […] The normalized quantity or distribution of objects was described as a quantity or distribution of objects per 1000 cells.

[4] = Table 23 (down-regulators), dose 10 nM
[5] = Table 23 (down-regulators), dose 100 nM
[6] = Table 23 (down-regulators), dose 1000 nM
[7] = Table 23 (down-regulators), dose 10000 nM
[8] = neuronal cells, dose 10 nM, 24 hours
[9] = neuronal cells, dose 100 nM, 24 hours
[10] = neuronal cells, dose 1000 nM, 24 hours
[11] = Table 22, dose 100 nM, 24 hours
[12] = neuronal cells, dose 10000 nM, 24 hours

SMILES | fold induction at 0.01 µM [1] | fold induction at 0.1 µM [1] | fold induction at 1 µM [1] | Number of Gigasomes Produced ([1]; dose 10 nM) | Number of Gigasomes Produced ([1]; dose 100 nM) | Number of Gigasomes Produced ([1]; dose 1000 nM) | Fold Change of Gigasomes Produced vs. DMSO ([1]; dose 100 nM) | Fold Change of Gigasomes Produced vs. DMSO ([1]; dose 1000 nM) | Number of Gigasomes Produced ([1]; dose 10000 nM) | Viability [2, 8] | Viability [2, 9] | Viability [2, 10] | further results
Cc1ncc(-c2ccnc(Nc3ccc(S(C)(=O)=O)cc3)n2)n1C(C)C [AZD-5438] | 1.5 to 1.75 | 1.25 to 1.5 | 1 to 1.25 | 45-55 | 35-45 | 35-45 |  |  |  |  |  |  | Viability ([2]; human, 24 h, 10 nM): 100%; Viability ([2]; human, 24 h, 100 nM): 100%; Viability ([2]; human, 24 h, 1000 nM): 100%
COC(=O)C1=C(C)NC(C)=C([N+](=O)[O-])C1c1ccccc1C(F)(F)F (stereo not shown) [Bay K 8644] |  |  |  | 35-45 | 35-45 | 35-45 | 1.25-1.5 | 1.25-1.5 |  |  |  |  | Fold Change of Gigasomes Produced vs. DMSO [3, 4]: 0.75-1.0; Number of Gigasomes Produced [3, 4]: >150; Fold Change of Gigasomes Produced vs. DMSO [3, 5]: 0.5-0.75; Number of Gigasomes Produced [3, 5]: 120-135; Fold Change of Gigasomes Produced vs. DMSO [3, 6]: 0.75-1.0; Number of Gigasomes Produced [3, 6]: 105-120; Fold Change of Gigasomes Produced vs. DMSO [3, 7]: 0.25-0.5; Number of Gigasomes Produced [3, 7]: 75-90; Fold Change of Gigasomes Produced vs. DMSO ([1]; dose 10 nM): 1.25-1.5
C=C(C)[C@@H]1CC[C@]2(C(=O)O)CC[C@]3(C)[C@H](CC[C@@H]4[C@@]5(C)CC[C@H](O)C(C)(C)[C@@H]5CC[C@]43C)[C@@H]12 [Betulinic acid] | 0.5 to 0.75 | 1.25 to 1.5 |  | <35 | 55-65 |  |  |  | 55-65 |  |  |  | fold induction at 10 µM [1]: 1.5 to 1.75; Viability ([2]; human, 24 h, 10 nM): 100%; Viability ([2]; human, 24 h, 100 nM): 100%; Viability ([2]; human, 24 h, 10000 nM): 100%
O=C1CSC(c2ccccc2Cl)c2cc(Cl)ccc2N1 (stereo not shown) [CGP37157, reference compound] |  |  |  |  |  |  |  |  |  |  |  |  | Fold Change of Gigasomes Produced vs. DMSO [3, 4]: 0.75-1.0; Number of Gigasomes Produced [3, 4]: 120-135; Fold Change of Gigasomes Produced vs. DMSO [3, 5]: 0.75-1.0; Number of Gigasomes Produced [3, 5]: 105-120; Fold Change of Gigasomes Produced vs. DMSO [3, 6]: 0.25-0.5; Number of Gigasomes Produced [3, 6]: 50-75; Fold Change of Gigasomes Produced vs. DMSO [3, 7]: 0.25-0.5; Number of Gigasomes Produced [3, 7]: 50-75; downregulation of gigasome production ([3]; doses 10-10,000 nM, 24 h): dose-dependent downregulation
O=C(c1ccc2nccnc2c1)N1CCCCC1 [CX516] | 0.75 to 1 | 1.25 to 1.5 | 1 to 1.25 | <35 | 45-55 | 35-45 |  |  |  | 100% | 100% | 100% | 
C[C@H](NC(=O)Cc1cc(F)cc(F)c1)C(=O)N[C@H](C(=O)OC(C)(C)C)c1ccccc1 [DAPT] |  |  |  |  |  |  |  |  |  |  |  |  | Fold Change of Gigasomes Produced vs. DMSO ([3]; Table 22, dose 10 nM, 24 hours): 1.0-1.25; Number of Gigasomes Produced ([3]; Table 22, dose 10 nM, 24 hours): 200-225; Fold Change of Gigasomes Produced vs. DMSO [3, 11]: 1.25-1.5; Number of Gigasomes Produced [3, 11]: 250-275
CC1=NS(=O)(=O)c2cc(Cl)ccc2N1 [Diazoxide] |  | 1.5 to 1.75 | 1.25 to 1.5 |  | 45-55 | 35-45 |  |  | 35-45 |  |  |  | fold induction at 10 µM [1]: 1 to 1.25; Viability ([2]; human, 24 h, 100 nM): 100%; Viability ([2]; human, 24 h, 1000 nM): 100%; Viability ([2]; human, 24 h, 10000 nM): 100%
COC(=O)c1ccccc1NC(=O)c1ccc(F)cc1 [EXO1, reference compound] |  |  |  | 35-40 | 20-25 | 10-15 | 0.5-0.75 | 0.25-0.5 | 10-15 | 100% | 100% | 100% | Fold Change of Gigasomes Produced vs. DMSO ([1]; dose 10 nM): 0.75-1.0; Fold Change of Gigasomes Produced vs. DMSO ([1]; dose 10000 nM): 0.25-0.5; downregulation of gigasome production [1]: dose-dependent downregulation; Viability [2, 12]: 100%
CCCn1cnc2c(NCc3ccc(C)s3)nc(N[C@H](CC)CO)nc21 [GV-58, reference compound] |  |  |  | 25-30 | 20-25 | 20-25 | 0.75-1.0 | 0.75-1.0 | 10-15 | 100% | 100% | 100% | Fold Change of Gigasomes Produced vs. DMSO ([1]; dose 10 nM): 0.75-1.0; Fold Change of Gigasomes Produced vs. DMSO ([1]; dose 10000 nM): 0.25-0.5; downregulation of gigasome production [1]: dose-dependent downregulation; Viability [2, 12]: >75%
O=C(/C=C/c1ccc(/C=C/C(=O)Nc2ccc(C3=NCCN3)cc2)cc1)Nc1ccc(C2=NCCN2)cc1 [GW4869, reference compound] |  |  |  | 30-35 | 35-40 | 15-20 | 0.75-1.0 | 0.25-0.5 | 5-10 |  |  |  | Fold Change of Gigasomes Produced vs. DMSO ([1]; dose 10000 nM): 0.25-0.5; downregulation of gigasome production [1]: dose-dependent downregulation
CCN(CCO)CCCC(C)Nc1ccnc2cc(Cl)ccc12 (stereo not shown) [Hydroxychloroquine] | 1 to 1.25 | 0.75 to 1 | 0.75 to 1 | 30-35 | 20-25 | 25-30 |  |  | 20-25 | 100% | 100% | >75% | fold induction at 10 µM [1]: 0.75 to 1; Viability [2, 12]: >75%
